# Assay results as given in patent US10745377B2, “Piperidine or piperazine linked imidazole and triazole derivatives and methods of use” (MERCK SHARP & DOHME CORP., priority 2013, dated 2020).
# Legend:
# Format in all cases: biochemical
# CYP1A2 = target: T1, CYP1A2 (Homo sapiens, UniProt P05177); assay: Cocktail assay for CYPs in human liver microsomes: CYP1A2 (phenacetin O-deethylation); conditions: human liver microsomes 0.1 mg/mL, 10 μM phenacetin, 10 min at 37° C., 6 concentrations up to 10 μM; read-out: IC50 (nM) CYP1A2
# T1 construct: 0.1 mg/mL protein human liver microsomes (BD Gentest); tissue BD Gentest; host or cells: human liver microsomes
# T1 sequence (P05177 1-516): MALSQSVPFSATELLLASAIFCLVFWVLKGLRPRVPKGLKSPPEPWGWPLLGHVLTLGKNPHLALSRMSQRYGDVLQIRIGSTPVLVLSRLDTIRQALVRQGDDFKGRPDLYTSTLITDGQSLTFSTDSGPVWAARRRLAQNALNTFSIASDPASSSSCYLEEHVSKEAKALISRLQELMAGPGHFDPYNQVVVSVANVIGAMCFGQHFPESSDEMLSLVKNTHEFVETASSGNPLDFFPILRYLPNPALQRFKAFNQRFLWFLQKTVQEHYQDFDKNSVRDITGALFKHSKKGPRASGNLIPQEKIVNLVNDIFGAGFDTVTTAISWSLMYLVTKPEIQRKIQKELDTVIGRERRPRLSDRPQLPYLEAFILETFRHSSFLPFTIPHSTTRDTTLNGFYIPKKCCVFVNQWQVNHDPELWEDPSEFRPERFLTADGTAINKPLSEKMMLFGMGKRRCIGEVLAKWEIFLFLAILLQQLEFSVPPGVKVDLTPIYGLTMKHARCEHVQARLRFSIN
# Method: (§1) Determination of IC50 in a Cocktail Assay for CYPs 1A2, 2C9, 2C19, 2D6 and 3A4
# (§2) This assay was performed in a standard 96-well plate design. […] The incubation substrate mix contains 10 μM phenacetin (1A2), 5 μM diclofenac (2C9), 30 μM mephenytoin (2C19), 5 μM dextromethorphan (2D6) and 2 μM midazolam (3A4), 0.1 mg/mL protein human liver microsomes (BD Gentest), 1 mM NAPDH, 3.3 mM MgCl2 and 100 mM potassium phosphate buffer (pH 7.4). The production of the metabolite of each probe substrate was determined after incubation for 10 min at 37° C. Quantitation of the metabolite peak area ratio against an internal standard (tolbutamide) was determined by LC/MS/MS analysis following acetonitrile treatment of the incubations.
# (§3) Samples were analyzed in the MRM mode with a SCIEX API-4000 mass spectrometer (Applied Biosystems, Foster City, Calif.), with a Shimadzu LC-20 AD pump (Shimadzu corporation, Kyoto, JP) and a CTC PAL autosampler (Agilent Technologies, Switzerland). A Phenomenex, Luna, 5 μm, 100 A, 2.00×30 mm HPLC column was used for the separation. The mobile phases were: (A) 0.1% formic acid in water and (B) 0.1% formic acid in acetonitrile. The binary gradient was as follows.
# (§4) The mass spectrum parameters were as follows:
# (§5) The LC/MS/MS parameters for the analytes were as follows.
# (§6) The peak area ratio of the analyte to the internal standard was used to quantify the metabolite. The values of peak area ratios in the presence of test compound were compared to those of maximum or minimum controls and were expressed as % inhibition by interpolating between the maximum and minimum peak area ratios. Incubations with no inhibitor were defined as the maxima.
# (§7) The following equation was used to calculate the % inhibition: [1−[(X−Low control)/(High control−Low control)]]*100
# (§8) For the IC50 calculation, SigmaPlot was used to plot the mean % inhibition versus the test compound concentrations and for non-linear regression analysis of the data. Depending on the range of data points defining the inhibition curve, the data may have been fit to the 4-parameter logistic equation.
# CYP2C9 = target: T2, CYP2C9 (Homo sapiens, UniProt P11712); assay: Cocktail assay for CYPs in human liver microsomes: CYP2C9 (diclofenac 4′-hydroxylation); conditions: human liver microsomes 0.1 mg/mL, 5 μM diclofenac, 10 min at 37° C., 6 concentrations up to 10 μM; read-out: IC50 (nM) CYP2C9
# T2 construct: 0.1 mg/mL protein human liver microsomes (BD Gentest); tissue BD Gentest; host or cells: human liver microsomes
# T2 sequence (P11712 whole entry): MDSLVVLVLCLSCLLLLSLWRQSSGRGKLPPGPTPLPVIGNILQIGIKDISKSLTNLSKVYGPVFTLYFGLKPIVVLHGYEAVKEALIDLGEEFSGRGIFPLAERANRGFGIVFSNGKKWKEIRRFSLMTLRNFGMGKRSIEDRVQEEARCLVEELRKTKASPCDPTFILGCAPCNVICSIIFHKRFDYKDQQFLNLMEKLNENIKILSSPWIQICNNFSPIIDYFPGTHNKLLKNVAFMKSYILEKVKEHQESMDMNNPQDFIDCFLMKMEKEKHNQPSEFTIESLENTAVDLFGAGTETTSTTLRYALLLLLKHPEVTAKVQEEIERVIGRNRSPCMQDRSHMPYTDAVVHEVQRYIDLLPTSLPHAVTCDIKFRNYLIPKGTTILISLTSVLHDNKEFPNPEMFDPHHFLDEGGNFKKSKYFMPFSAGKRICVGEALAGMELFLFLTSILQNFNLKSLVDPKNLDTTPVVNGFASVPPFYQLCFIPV
# Method: as §1, §2, §3, §4, §5, §6, §7, §8
# CYP2D6 = target: T3, CYP2D6 (Homo sapiens, UniProt P10635); assay: Cocktail assay for CYPs in human liver microsomes: CYP2D6 (dextromethorphan O-demethylation); conditions: human liver microsomes 0.1 mg/mL, 5 μM dextromethorphan, 10 min at 37° C., 6 concentrations up to 10 μM; read-out: IC50 (nM) CYP2D6
# T3 construct: 0.1 mg/mL protein human liver microsomes (BD Gentest); tissue BD Gentest; host or cells: human liver microsomes
# T3 sequence (P10635 whole entry): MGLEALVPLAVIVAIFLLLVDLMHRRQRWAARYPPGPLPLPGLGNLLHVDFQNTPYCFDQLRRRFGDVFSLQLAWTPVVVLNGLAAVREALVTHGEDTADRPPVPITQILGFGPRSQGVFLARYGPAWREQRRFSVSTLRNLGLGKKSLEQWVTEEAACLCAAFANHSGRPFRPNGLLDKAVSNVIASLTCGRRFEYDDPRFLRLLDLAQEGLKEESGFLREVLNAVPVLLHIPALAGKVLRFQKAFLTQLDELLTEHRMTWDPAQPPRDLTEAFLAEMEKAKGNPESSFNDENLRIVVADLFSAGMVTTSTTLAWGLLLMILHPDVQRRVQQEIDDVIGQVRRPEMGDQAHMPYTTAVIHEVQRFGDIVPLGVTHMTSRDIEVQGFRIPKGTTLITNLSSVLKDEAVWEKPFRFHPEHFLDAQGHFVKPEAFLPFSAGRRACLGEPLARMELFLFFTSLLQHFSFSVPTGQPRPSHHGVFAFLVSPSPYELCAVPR
# CYP3A4 = target: T4, CYP3A4 (Homo sapiens, UniProt P08684); assay: Cocktail assay for CYPs in human liver microsomes: CYP3A4 (midazolam 1′-hydroxylation); conditions: human liver microsomes 0.1 mg/mL, 2 μM midazolam, 10 min at 37° C., 6 concentrations up to 10 μM; read-out: IC50 (nM) CYP3A4
# T4 construct: 0.1 mg/mL protein human liver microsomes (BD Gentest); tissue BD Gentest; host or cells: human liver microsomes
# T4 sequence (P08684 whole entry): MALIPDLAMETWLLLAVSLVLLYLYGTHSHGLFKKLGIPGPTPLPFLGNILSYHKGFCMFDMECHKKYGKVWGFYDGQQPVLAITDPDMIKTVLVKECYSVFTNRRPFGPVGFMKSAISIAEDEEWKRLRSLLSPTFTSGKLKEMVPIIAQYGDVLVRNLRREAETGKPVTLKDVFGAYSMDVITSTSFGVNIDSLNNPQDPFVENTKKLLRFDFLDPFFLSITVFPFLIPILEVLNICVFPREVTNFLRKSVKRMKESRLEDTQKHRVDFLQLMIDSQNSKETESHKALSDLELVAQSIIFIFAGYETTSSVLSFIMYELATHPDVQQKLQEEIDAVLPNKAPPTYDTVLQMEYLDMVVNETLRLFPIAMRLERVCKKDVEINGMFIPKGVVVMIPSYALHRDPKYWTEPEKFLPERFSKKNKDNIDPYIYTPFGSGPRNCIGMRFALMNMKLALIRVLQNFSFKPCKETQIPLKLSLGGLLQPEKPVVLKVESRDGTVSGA
# Method: as §1, §2, §3, §4, §5, §6, §7, §8
# CYP2C19 = target: T5, CYP2C19 (Homo sapiens, UniProt P33261); assay: Cocktail assay for CYPs in human liver microsomes: CYP2C19 (mephenytoin 4′-hydroxylation); conditions: human liver microsomes 0.1 mg/mL, 30 μM mephenytoin, 10 min at 37° C., 6 concentrations up to 10 μM; read-out: IC50 (nM) CYP2C19
# T5 construct: 0.1 mg/mL protein human liver microsomes (BD Gentest); tissue BD Gentest; host or cells: human liver microsomes
# T5 sequence (P33261 whole entry): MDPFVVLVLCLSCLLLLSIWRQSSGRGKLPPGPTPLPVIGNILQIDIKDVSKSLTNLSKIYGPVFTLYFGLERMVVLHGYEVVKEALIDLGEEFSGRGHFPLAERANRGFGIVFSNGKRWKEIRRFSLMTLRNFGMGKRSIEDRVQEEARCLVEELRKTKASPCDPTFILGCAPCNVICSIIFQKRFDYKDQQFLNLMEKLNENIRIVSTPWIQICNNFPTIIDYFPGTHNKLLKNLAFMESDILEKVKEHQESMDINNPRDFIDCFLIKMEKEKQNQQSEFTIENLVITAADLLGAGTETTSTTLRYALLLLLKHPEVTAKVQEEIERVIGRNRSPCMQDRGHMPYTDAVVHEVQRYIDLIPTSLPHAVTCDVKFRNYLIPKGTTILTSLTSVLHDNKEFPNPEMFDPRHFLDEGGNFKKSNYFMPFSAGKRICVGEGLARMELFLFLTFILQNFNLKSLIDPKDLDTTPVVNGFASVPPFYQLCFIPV
SMILES,IC50 (CYP1A2),IC50 (CYP2C9),IC50 (CYP2D6),IC50 (CYP3A4),IC50 (CYP2C19)
"CCS(=O)(=O)c1cnc(N2CCN(Cc3cncn3[C@H](C)Cc3ccc(F)cc3)CC2)s1 [Compound 40, (R)-5-(ethylsulfonyl)-2-(4-((1-(1-(4-fluorophenyl)propan-2-yl)-1H-imidazol-5-yl)methyl)piperazin-1-yl)thiazole]",> 10000 nM,> 10000 nM,5260 nM,27 nM,> 10000 nM
"CCS(=O)(=O)CCc1cnc(N2CCN(Cc3cncn3[C@H](C)Cc3ccc(F)cc3)CC2)s1 [Compound 41, (R)-5-(2-(ethylsulfonyl)ethyl)-2-(4-((1-(1-(4-fluorophenyl)propan-2-yl)-1H-imidazol-5-yl)methyl)piperazin-1-yl)thiazole]",> 10000 nM,2700 nM,2380 nM,30 nM,2230 nM
"CCS(=O)(=O)CCc1cnc(N2CCN(Cc3cncn3[C@H](C)c3ccc(Cl)cc3)CC2)s1 [Compound 42, (R)-2-(4-((1-(1-(4-chloro-phenyl)ethyl)-1H-imidazol-5-yl)methyl)piperazin-1-yl)-5-(2-(ethyl-sulfonyl)ethyl)thiazole]",> 10000 nM,> 10000 nM,1660 nM,22 nM,2400 nM
"CCS(=O)(=O)CCc1cnc(N2CCN(Cc3cncn3[C@H](C)c3ccc(F)cc3)CC2)s1 [Compound 43, (R)-2-(4-((1-(1-(4-fluoro-phenyl)ethyl)-1H-imidazol-5-yl)methyl)piperazin-1-yl)-5-(2-(ethyl-sulfonyl)ethyl) thiazole]",> 10000 nM,> 10000 nM,2950 nM,50 nM,4010 nM
"C[C@H](c1ccc(C#N)cc1)n1cncc1CN1CCN(c2ccccc2)C(C(=O)NC(C)(C)C)C1 (stereo partly drawn) [Compound 44, N-(tert-butyl)-4-((1-((R)-1-(4-cyanophenyl)ethyl)-1H-imidazol-5-yl)methyl)-1-phenylpiperazine-2-carboxamide]",> 10000 nM,5090 nM,> 10000 nM,29 nM,5840 nM
"C[C@H](c1ccc(C#N)cc1)n1cncc1CN1CCN(c2ccccc2)C(C(=O)N2CCOCC2)C1 (stereo partly drawn) [Compound 46, 4-((1R)-1-(5-((3-(morpholine-4-carbonyl)-4-phenylpiperazin-1-yl)methyl)-1H-imidazol-1-yl)ethyl) benzonitrile]",> 10000 nM,> 10000 nM,> 10000 nM,46 nM,> 10000 nM
"C[C@H](c1ccc(C#N)cc1)n1cncc1CN1CCN(c2ccccc2)C(C(=O)N2CCC(F)(F)CC2)C1 (stereo partly drawn) [Compound 47, 4-((1R)-1-(5-((3-(4,4-difluoropiperidine-1-carbonyl)-4-phenylpiperazin-1-yl)methyl)-1H-imidazol-1-yl)ethyl) benzonitrile]",> 10000 nM,9270 nM,> 10000 nM,20 nM,7830 nM
C[C@H](c1ccc(F)cc1)n1cncc1CN1CCN(c2ccccc2)[C@H](C(=O)N2CCCCC2)C1 [Compound 48],> 10000 nM,1470 nM,4890 nM,31 nM,2000 nM
"Cc1cc(C(=O)N2CCN(Cc3cncn3[C@H](C)c3ccc(F)cc3)CC2c2ccccc2)no1 (stereo partly drawn) [Compound 49, (4-((1-((R)-1-(4-fluorophenyl)ethyl)-1H-imidazol-5-yl)methyl)-2-phenylpiperazin-1-yl)(5-methylisoxazol-3-yl)methanone]",> 10000 nM,1810 nM,> 10000 nM,14 nM,2110 nM
"CC(=O)N1CCN(Cc2cncn2[C@H](C)c2ccc(F)cc2)CC1c1ccccc1 (stereo partly drawn) [Compound 51, 1-(4-((1-((R)-1-(4-fluorophenyl)ethyl)-1H-imidazol-5-yl)methyl)-2-phenylpiperazin-1-yl)ethanone]",> 10000 nM,> 10000 nM,> 10000 nM,22 nM,> 10000 nM
